Here are results for four molecules from patent publication US7172865B2, “Rapid and sensitive assay for the detection and quantification of coregulators of nucleic acid binding factors” (Saint Louis University, priority 2001, dated 2007).

In experiment [1] the target is T1, TrpR (Escherichia coli, UniProt P0A881). Nature of the experiment: tryptophan biosensor, fluorescence intensity. The experiment is classed as binding. The note with it: 250 nM and 300 nM components, 2 hrs. On the procedure:
Increasing concentrations of tryptophan were added to a mixture containing 250 nM fluorescein labeled TrpR-specific first nucleic acid component and 300 nM dabcyl-labeled Trp-specific second nucleic acid component.

The target of experiment [2] is T1, TrpR. The experiment in a line: tryptophan biosensor, fluorescence polarization. Format: binding. The note with it: 4 nM fluorescein-labeled 25 bp duplex. On the procedure: Increasing concentrations of tryptophan were added to a mixture containing 4 nM fluorescein-labeled 25 bp DNA duplex containing consensus TrpR binding sites.
To illustrate that a different detection methodology for measuring the formation of nucleic acid-protein complexes could be accommodated to the biosensor design shown in FIG. 20, a biosensor for tryptophan was prepared wherein only one nucleic acid component was attached to a detectable label. According to this particular embodiment of the invention, fluorescence polarization of fluorochrome-labeled DNA component containing a TrpR cognate binding site was used to measure tryptophan-induced formation of a TrpR-nucleic acid complex (FIG. 23).
A general note: In fluorescence polarisation assays a small probe gives low polarisation when free and higher when bound to something large.

Another experiment addresses LacR protein (Escherichia coli, UniProt P03023). Nature of the experiment: IPTG biosensor. Format: binding. The note with it: 50 nM and 60 nM components, 2 hrs. On the procedure:
FIG. 24 describes a biosensor for detecting IPTG. Increasing concentrations of IPTG were added to a mixture containing 50 nM fluorescein-labeled LacR-specific first nucleic acid component and 60 nM dabcyl-labeled Lac-specific second nucleic acid component.
FIG. 24 illustrates a biosensor design using a nucleic acid binding factor for which the coregulator reduced its affinity for a specific nucleic acid element. In this case, the coregulator will induce the dissociation of the protein-nucleic acid complex and its detection could be accomplished by coregulator-dependent disappearance of protein-nucleic acid complex. […] In the absence of IPTG (a coregulator for LacR) the LacR protein bound to its labeled cognate nucleic acid element resulting in quenching of the fluorescence signal.

Experiment [3] deals with LacR binding site split between LAC1/LAC4 and LAC2/LAC3. The experiment in a line: detection of Lac repressor protein by fluorescence quenching. The source says:
The LAC1 oligonucleotide (SEQ ID NO:12) was hybridized with the LAC4 oligonucleotide (SEQ ID NO:15) to generate the LAC1/LAC4 construct and the LAC2 oligonucleotide (SEQ ID NO:13) was hybridized with the LAC3 oligonucleotide (SEQ ID NO:14) to generate the LAC2/LAC3 construct.

Another experiment addresses CAP protein (Escherichia coli, UniProt P0ACJ8). The settings on record: cited from earlier work.
Experiment [4] relates to TrpR binding site split between TRP1/TRP4 and TRP2/TRP3. The settings on record: 250 nM TRP1/TRP4 and 300 nM TRP2/TRP3, 4 mM tryptophan.
Description: The TRP1 oligonucleotide (SEQ ID NO:16) was hybridized with the TRP4 oligonucleotide (SEQ ID NO:19) to generate the TRP1/TRP4 construct and the TRP2 oligonucleotide (SEQ ID NO:17) was hybridized with the TRP3 oligonucleotide (SEQ ID NO:18) to generate the TRP2/TRP3 construct. For the hybridization, the appropriate oligonucleotides were mixed at 10 μM concentration in 100 μl of 50 mM Tris/HCl (pH 8.0), 100 mM NaCl, 1 mM EDTA, heated for 1 min at 95° C. and then cooled to 25° C. for 1 hr. All subsequent fluorescence measurements were performed at 15° C. in 10 mM potassium phosphate (pH 7.6), 50 mM NaCl, 0.1 mM EDTA, 4mM tryptophan, 10% glycerol, 0.01% sodium azide and 1.0 mg/ml BSA. […] The duplexes contain a TrpR binding site (underlined sequence) split between each of the two double stranded constructs.
The fluorescence spectra of 250 nM TRP1/TRP4 and 300 nM TRP2/TRP3 were recorded in the absence of TrpR (FIG. 16A, curve 1) and in the presence of varying amounts of TrpR in a range from 0–800 nM (FIG. 16A, curves 2–5). ).

CAP protein, sequence (P0ACJ8 2-210): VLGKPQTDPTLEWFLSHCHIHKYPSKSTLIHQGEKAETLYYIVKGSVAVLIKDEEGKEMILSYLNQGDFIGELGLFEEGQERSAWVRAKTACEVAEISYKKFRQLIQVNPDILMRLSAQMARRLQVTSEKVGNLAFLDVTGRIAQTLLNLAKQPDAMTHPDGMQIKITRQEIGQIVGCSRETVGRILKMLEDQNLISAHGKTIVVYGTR

Take `N[C@@H](Cc1c[nH]c2ccccc12)C(=O)O` [tryptophan]: the “fluorescence signal response to tryptophan” value on TrpR [1] is “large fluorescence signal change”. Also, the “fluorescence polarization response to tryptophan” value on TrpR [2] is “change of fluorescence polarization signal proportional to tryptophan concentration”.
Consider `CC(C)S[C@@H]1O[C@H](CO)[C@H](O)[C@H](O)[C@H]1O` [IPTG, reference compound], for which the “fluorescence signal response to IPTG” value on LacR protein was “IPTG-dependent increase in fluorescence signal”. For the same molecule, the “effect on LacR nucleic acid binding activity” value in experiment [3] (5 mM IPTG) was “reduces its nucleic acid binding activity”.
In the case of `Nc1nc2c(ncn2[C@@H]2O[C@@H]3COP(=O)(O)O[C@H]3[C@H]2O)c(=O)[nH]1` [cGMP], on CAP protein (CAP alone), the “affinity of CAP for the cyclic nucleotide” value was “micromolar affinity”. The “change of affinity of CAP for the nucleotide in the presence of DNA containing a CAP binding site” value on CAP protein was “remains unchanged”.

B1: LacR: Lac repressor protein, nucleic acid binding reduced by IPTG (protein, UniProt P03023 1-360, looked up)
Lactose operon repressor: MKPVTLYDVAEYAGVSYQTVSRVVNQASHVSAKTREKVEAAMAELNYIPNRVAQQLAGKQSLLIGVATSSLALHAPSQIVAAIKSRADQLGASVVVSMVERSGVEACKAAVHNLLAQRVSGLIINYPLDDQDAIAVEAACTNVPALFLDVSDQTPINSIIFSHEDGTRLGVEHLVALGHQQIALLAGPLSSVSARLRLAGWHKYLTRNQIQPIAEREGDWSAMSGFQQTMQMLNEGIVPTAMLVANDQMALGAMRAITESGLRVGADISVVGYDDTEDSSCYIPPLTTIKQDFRLLGQTSVDRLLQLSQGQAVKGNQLLPVSLVKRKTTLAPNTQTASPRALADSLMQLARQVSRLESGQ
For the molecule B1, the “protein concentration at saturation of quenching” value in experiment [3] (50 nM LAC1/LAC4 plus LAC2/LAC3) and in experiment [4] was “approximately 150 nM” in each case.
